{"source": "ChEMBL document CHEMBL1949614", "about": "“Advent of Imidazo[1,2-a]pyridine-3-carboxamides with Potent Multi- and Extended Drug Resistant Antituberculosis Activity” (ACS Med Chem Lett, 2011)", "type_in_all_cases": "functional", "key": {"[1]": {"tested_on": "Mycobacterium tuberculosis", "assay": "Antitubercular activity against multidrug-resistant isoniazid, rifampicin, ethambutol, kanamycin, p-aminosalicylic acid-resistant Mycobacterium tuberculosis clinical isolate by microbroth dilution assay"}, "[2]": {"tested_on": "Mycobacterium tuberculosis", "assay": "Antitubercular activity against multidrug-resistant isoniazid, rifampicin, ethambutol, pyrazinamide, streptomycin, kanamycin, p-aminosalicylic acid, ethionamide/thioacetazone-resistant Mycobacterium tuberculosis clinical isolate by microbroth dilution assay"}, "[3]": {"tested_on": "Mycobacterium tuberculosis", "assay": "Antitubercular activity against extensively drug-resistant isoniazid, rifampicin, ethambutol, streptomycin, cycloserine, p-aminosalicylic acid, ethionamide/thioacetazone, ofloxacin-resistant Mycobacterium tuberculosis clinical isolate by microbroth dilution assay"}, "[4]": {"tested_on": "Mycobacterium tuberculosis", "assay": "Antitubercular activity against multidrug-resistant isoniazid, rifampicin, ethambutol, pyrazinamide, rifabutin, thioacetazone/ethionamide-resistant Mycobacterium tuberculosis clinical isolate by microbroth dilution assay"}, "[5]": {"tested_on": "Mycobacterium tuberculosis", "assay": "Antitubercular activity against extensively drug-resistant isoniazid, rifampicin, ethambutol, streptomycin, p-aminosalicylic acid, ofloxacin-resistant Mycobacterium tuberculosis clinical isolate by microbroth dilution assay"}, "[6]": {"tested_on": "Mycobacterium tuberculosis", "assay": "Antitubercular activity against multidrug-resistant isoniazid, cycloserine, p-aminosalicylic acid, ethionamide/thioacetazone-resistant Mycobacterium tuberculosis clinical isolate by microbroth dilution assay"}, "[7]": {"tested_on": "Mycobacterium tuberculosis", "assay": "Antitubercular activity against multidrug-resistant isoniazid, rifampicin, ethambutol, pyrazinamide, streptomycin, p-aminosalicylic acid-resistant Mycobacterium tuberculosis clinical isolate by microbroth dilution assay"}, "[8]": {"tested_on": "Mycobacterium tuberculosis", "assay": "Antitubercular activity against multidrug-resistant isoniazid, rifampicin, ethambutol, streptomycin, p-aminosalicylic acid-resistant Mycobacterium tuberculosis by microbroth dilution assay"}, "[9]": {"tested_on": "Mycobacterium tuberculosis", "assay": "Antitubercular activity against multidrug-resistant isoniazid, rifampicin, ethambutol, rifabutin-resistant Mycobacterium tuberculosis clinical isolate by microbroth dilution assay"}, "[10]": {"tested_on": "Mycobacterium tuberculosis", "assay": "Antitubercular activity against extensively drug-resistant isoniazid, rifampicin, ethambutol, kanamycin, p-aminosalicylic acid, ethionamide/thioacetazone, ofloxacin-resistant Mycobacterium tuberculosis clinical isolate by microbroth dilution assay"}}, "data": [{"smiles": "COc1cccc(CNC(=O)c2c(C)nc3cc(C)ccn23)c1", "values": [{"measurement": "MIC90", "setting": "[1]", "value": 0.13, "unit": "µM"}, {"measurement": "MIC90", "setting": "[2]", "value": "≤ 0.03", "unit": "µM"}, {"measurement": "MIC90", "setting": "[3]", "value": 0.03, "unit": "µM"}, {"measurement": "MIC90", "setting": "[4]", "value": 0.06, "unit": "µM"}, {"measurement": "MIC90", "setting": "[5]", "value": 0.02, "unit": "µM"}, {"measurement": "MIC90", "setting": "[6]", "value": 0.13, "unit": "µM"}, {"measurement": "MIC90", "setting": "[7]", "value": 0.06, "unit": "µM"}, {"measurement": "MIC90", "setting": "[8]", "value": 1.01, "unit": "µM"}, {"measurement": "MIC90", "setting": "[9]", "value": "≤ 0.03", "unit": "µM"}, {"measurement": "MIC90", "setting": "[10]", "value": 0.02, "unit": "µM"}]}, {"smiles": "Cc1ccn2c(C(=O)NCc3cccc(F)c3)c(C)nc2c1", "values": [{"measurement": "MIC90", "setting": "[1]", "value": 0.26, "unit": "µM"}, {"measurement": "MIC90", "setting": "[2]", "value": 0.06, "unit": "µM"}, {"measurement": "MIC90", "setting": "[3]", "value": 0.07, "unit": "µM"}, {"measurement": "MIC90", "setting": "[4]", "value": 0.06, "unit": "µM"}, {"measurement": "MIC90", "setting": "[5]", "value": 0.03, "unit": "µM"}, {"measurement": "MIC90", "setting": "[6]", "value": 0.26, "unit": "µM"}, {"measurement": "MIC90", "setting": "[7]", "value": 0.06, "unit": "µM"}, {"measurement": "MIC90", "setting": "[8]", "value": 0.26, "unit": "µM"}, {"measurement": "MIC90", "setting": "[9]", "value": 0.13, "unit": "µM"}, {"measurement": "MIC90", "setting": "[10]", "value": 0.03, "unit": "µM"}]}, {"smiles": "Cc1ccn2c(C(=O)NCc3ccccc3)c(C)nc2c1", "values": [{"measurement": "MIC90", "setting": "[1]", "value": 0.28, "unit": "µM"}, {"measurement": "MIC90", "setting": "[2]", "value": 0.07, "unit": "µM"}, {"measurement": "MIC90", "setting": "[3]", "value": 0.07, "unit": "µM"}, {"measurement": "MIC90", "setting": "[4]", "value": 0.14, "unit": "µM"}, {"measurement": "MIC90", "setting": "[5]", "value": 0.14, "unit": "µM"}, {"measurement": "MIC90", "setting": "[6]", "value": 1.12, "unit": "µM"}, {"measurement": "MIC90", "setting": "[7]", "value": 1.12, "unit": "µM"}, {"measurement": "MIC90", "setting": "[8]", "value": 2.24, "unit": "µM"}, {"measurement": "MIC90", "setting": "[9]", "value": 0.14, "unit": "µM"}, {"measurement": "MIC90", "setting": "[10]", "value": 0.07, "unit": "µM"}]}]}
